Test results as given in patent US20100184807A1, “Methods to inhibit tumor cell growth by using proton pump inhibitors” (Bio-Quant, Inc., priority 2008, published 2010).

Assays:
[1] = test system: G401 rhabdoid (kidney) cancer cells; experiment: Xenograft nude mouse model, G401; format: in vivo; conditions: nude mice, 100 mg/kg in PEG300
Experimental: (§1) JR (rhabdomyosarcoma), HepG2 (liver carcinoma), SR Liquid Leukemia (leukemia), RSI 184 B Lymphoma (lymphoma), and G401 rhabdoid (kidney) cancer cells for use in a xenograft mouse model were collected from JR, HepG2, SR Liquid Leukemia, RS1184 B Lymphoma, and G401 rhabdoid tumor cell lines and injected at 5×10^6 cells per nude mouse in a volume of 100 μl subcutaneously. The animals were examined three times weekly to determine the progression of the tumors and determine body weight. Dosing started when tumors reached the ˜75-150 mm^3 size. Animals were randomized and distributed in groups in such a way that mean tumor weights in all groups were within 15% of the mean tumor weight in Group 1 (Control—vehicle group). Upon reaching the ˜75-150 mm^3 target size an effective amount of lansoprazole was administered to the mice in a suspension of PEG300 at a concentration of 100 mg/kg.

[2] = test system: JR, HepG2, SR Liquid Leukemia, RS1184 B Lymphoma, and G401 rhabdoid tumor cell lines; experiment: Xenograft nude mouse model, all tumor lines; format: in vivo; conditions: subcutaneous xenografts
Experimental: as §1

OVCAR8 (ovarian cancer) = experiment: MTT tumor cell growth assay; format: cell-based; conditions: OVCAR8 cells, lansoprazole 1-100 μM, 48 hours
Experimental: (§2) In one study, adherent cells were plated approximately 16-24 hours before the day of the experiment in 180 μl growth media. On the day of the experiment, the plated adherent cells were analyzed and counted and suspension cells were plated in 180 μl growth media. 10× lansoprazole compounds and vehicle was prepared. The 10× lansoprazole compounds were prepared by diluting lansoprazole to final concentrations of 100 μM, 30 μM, 10 μM, 3 μM, and 1 μM. A vehicle was prepared by preparing a solution of PBS, equivalent to the volume used for 10 μM lansoprazole wherein the 1× solution constitutes ˜0.06% PBS. 10 μl of the various 10× lansoprazole solutions and the vehicle were added to the cells. The cells were incubated at 37° C., 5% CO2 for 48 hours. The media was then aspirated. The cell suspension was then spun at 1500 RPM for 10 minutes. The media was slowly removed. 200 μl of MTT solution was added to each well with a concentration of 0.863 mg/ml MTT in the growth media. The cells were incubated at 37° C., 5% CO2 for 4 hours and the medium is then aspirated. The plate containing the cell suspension was then spun at 1500 RPM for 10 minutes. The media was slowly removed using a multichannel pipettor. 100 μl of DMSO was then added to each well. The cells were incubated at 37° C., 5% CO2 for 5 minutes and the absorbance was obtained at 560 nm using a Dynex Opsys MR plate reader. The cells used for this procedure were the following cell lines: IGROV1 (ovarian cancer); OVCAR 8 (ovarian cancer); ES-2 (ovarian cancer); CAOV3 (ovarian cancer); OVCAR5 (ovarian cancer); SUDHL4 (lymphoma); RPMI8226 (myeloma); RPMI6666 (Hodgkin's lymphoma); NC37 (lymphoma); GDM-1 (leukemia); MC/CAR (prostate cancer); DU-145 (prostate cancer), J45-01 (leukemia), MOLT3 (leukemia), HUT78, J-gamma-1 (leukemia), MCF7 […], COL0205 (colon cancer), HL60 CLONE 15 (leukemia), T47D (breast cancer), P116 (intestinal cancer), KU812 (leukemia), SW620 (colon cancer), MK92-M1 (lymphoma), MV-4-11 (leukemia), HS578T (breast cancer), HT29 (colon cancer), HCT 116 (colon cancer), CAKI-1 (kidney cancer), A549 (lung cancer), H460 (lung cancer), A3 (colon cancer), MDA-MB231 […], MALME 3M (melanoma), RXF393 (kidney cancer), RS4.11 (leukemia), PC3 (prostate cancer), OVCAR3 (ovarian cancer), MDA-MB435 (melanoma), HUT102 (lymphoma), HL60 (leukemia), CCRF-CEM (leukemia), HUT78 (lymphoma), 786-O (kidney cancer), ACHN (kidney cancer), A498 (kidney cancer), H226 (lung cancer), H522 (lung cancer), HOP92 (lung cancer), SNB 19 (brain cancer), OVCAR4 (ovarian cancer), H9 (lymphoma), UO-31 (kidney cancer), HH (lymphoma), DAUDI (leukemia), LOXIMVI (melanoma), NAMALWA (lymphoma), EKVX (lung cancer), DOHH2 (lymphoma), SNB75 (brain cancer), SKMEL28 (melanoma), SKMEL5 (melanoma), SKMEL2 (melanoma), M14 (melanoma), UACC 257 (melanoma), H332M (lung cancer), KM12 (colon cancer), HCC2998 (colon cancer), G401 (kidney cancer), RS1184 (lymphoma), MC116 (leukemia), MOLT4 (leukemia), JM1 (liver cancer), HOP-62 (lung cancer), HCT-15 (colon cancer), SF-539 (brain cancer), SF295 (brain cancer), ST486 (lymphoma), U251 (brain cancer), and UACC-62 (melanoma).

UO-31 (kidney cancer) = experiment: MTT tumor cell growth assay; format: cell-based; conditions: UO-31 cells, lansoprazole 1-100 μM, 48 hours
Experimental: as §2

JMI = experiment: MTT tumor cell growth assay; format: cell-based; conditions: JMI cells, lansoprazole 1-100 μM, 48 hours
Experimental: as §2

HUT102 (lymphoma) = experiment: MTT tumor cell growth assay; format: cell-based; conditions: HUT102 cells, lansoprazole 1-100 μM, 48 hours
Experimental: as §2

MV-4-11 (leukemia) = experiment: MTT tumor cell growth assay; format: cell-based; conditions: MV-4-11 cells, lansoprazole 1-100 μM, 48 hours
Experimental: as §2

MOLT4 (leukemia) = experiment: MTT tumor cell growth assay; format: cell-based; conditions: MOLT4 cells, lansoprazole 1-100 μM, 48 hours
Experimental: as §2

DAUDI (leukemia) = experiment: MTT tumor cell growth assay; format: cell-based; conditions: DAUDI cells, lansoprazole 1-100 μM, 48 hours
Experimental: as §2

786-O (kidney cancer) = experiment: MTT tumor cell growth assay; format: cell-based; conditions: 786-O cells, lansoprazole 1-100 μM, 48 hours
Experimental: as §2

H226 (lung cancer) = experiment: MTT tumor cell growth assay; format: cell-based; conditions: H226 cells, lansoprazole 1-100 μM, 48 hours
Experimental: as §2

A498 (kidney cancer) = experiment: MTT tumor cell growth assay; format: cell-based; conditions: A498 cells, lansoprazole 1-100 μM, 48 hours
Experimental: as §2

HepG2 (liver carcinoma) = experiment: Xenograft nude mouse model, HepG2; format: in vivo; conditions: nude mice, 100 mg/kg in PEG300
Experimental: as §1

[3] = test system: SR Liquid Leukemia (leukemia); experiment: Xenograft nude mouse model, SR Liquid Leukemia; format: in vivo; conditions: nude mice, 100 mg/kg in PEG300
Experimental: as §1

Cc1c(OCC(F)(F)F)ccnc1C[S+]([O-])c1nc2ccccc2[nH]1 (stereo not drawn) [lansoprazole]
effectively reduced tumor growth: tumor growth in mice ([2]; 100 mg/kg in PEG300, FIGS. 4A-4C and 5A-5C)
extended life span: life span of the population ([2]; nude mice, 100 mg/kg in PEG300)
significant tumor cell growth reduction: tumor cell growth reduction (OVCAR8 (ovarian cancer)) | tumor cell growth reduction (UO-31 (kidney cancer)) | tumor cell growth reduction (JMI) | tumor cell growth reduction (HUT102 (lymphoma)) | tumor cell growth reduction (MV-4-11 (leukemia)) | tumor cell growth reduction (MOLT4 (leukemia)) | tumor cell growth reduction (DAUDI (leukemia)) | tumor cell growth reduction (786-O (kidney cancer)) | tumor cell growth reduction (H226 (lung cancer)) | tumor cell growth reduction (A498 (kidney cancer))
especially effective: treating tumor cells derived from tumor cell line [1] | treating tumor cells derived from tumor cell line (HepG2 (liver carcinoma)) | treating tumor cells derived from tumor cell line [3]
